Measurements from the supplement of paper PMC10307832.

How the values were obtained:
Experiment in all cases: relative viability (nuclei count vs DMSO), 5 days (fraction); higher = more cells survive
Dactolisib + Foretinib = compound: Cn1c(=O)n(-c2ccc(C(C)(C)C#N)cc2)c2c3cc(-c4cnc5ccccc5c4)ccc3ncc21 [Dactolisib] + COc1cc2c(Oc3ccc(NC(=O)C4(C(=O)Nc5ccc(F)cc5)CC4)cc3F)ccnc2cc1OCCCN1CCOCC1 [Foretinib] (partner 0.25 µM)
In short: (§1)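 Medians of duplicate plates are given as relative viability. That measure is the nuclei count in treated wells divided by the count in vehicle wells. Counts were taken on 4× images of lung cancer cell lines in 1536-well plates, 5 days after pin-tool dosing the day after seeding with one drug alone or a fixed anchor-drug dose plus five library-drug doses (not always all listed) in √10 steps.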

AZ505 + Alpelisib = compound: C1CCC(CC1)N(CCNCCC2=C3C(=C(C=C2)O)NC(=O)CO3)C(=O)CCNCCC4=CC(=C(C=C4)Cl)Cl [AZ505] + Cc1nc(NC(=O)N2CCC[C@H]2C(N)=O)sc1-c1ccnc(C(C)(C)C(F)(F)F)c1 [Alpelisib] (partner 2 µM)
In short: as §1

Dactolisib + Phenformin = compound: Cn1c(=O)n(-c2ccc(C(C)(C)C#N)cc2)c2c3cc(-c4cnc5ccccc5c4)ccc3ncc21 [Dactolisib] + N=C(N)NC(=N)NCCc1ccccc1 [Phenformin] (partner 250 µM)
In short: as §1

AZ505 + Dasatinib = compound: C1CCC(CC1)N(CCNCCC2=C3C(=C(C=C2)O)NC(=O)CO3)C(=O)CCNCCC4=CC(=C(C=C4)Cl)Cl [AZ505] + Cc1nc(Nc2ncc(C(=O)Nc3c(C)cccc3Cl)s2)cc(N2CCN(CCO)CC2)n1 [Dasatinib] (partner 0.075 µM)
In short: as §1

Row | Cell Line | relative viability (Dactolisib + Foretinib; first compound 0.002 µM) | relative viability (Dactolisib + Foretinib; first compound 0.006325 µM) | relative viability (Dactolisib + Foretinib; first compound 0.02 µM) | relative viability (Dactolisib + Foretinib; first compound 0.06325 µM) | relative viability (Dactolisib + Foretinib; first compound 0.2 µM) | relative viability (AZ505 + Alpelisib; first compound 0.08 µM) | relative viability (AZ505 + Alpelisib; first compound 0.253 µM) | relative viability (AZ505 + Alpelisib; first compound 0.8 µM) | relative viability (AZ505 + Alpelisib; first compound 2.53 µM) | relative viability (AZ505 + Alpelisib; first compound 8 µM) | relative viability (Dactolisib + Phenformin; first compound 0.002 µM) | relative viability (Dactolisib + Phenformin; first compound 0.006325 µM) | relative viability (Dactolisib + Phenformin; first compound 0.02 µM) | relative viability (Dactolisib + Phenformin; first compound 0.06325 µM) | relative viability (Dactolisib + Phenformin; first compound 0.2 µM) | relative viability (AZ505 + Dasatinib; first compound 0.08 µM) | relative viability (AZ505 + Dasatinib; first compound 0.253 µM) | relative viability (AZ505 + Dasatinib; first compound 0.8 µM) | relative viability (AZ505 + Dasatinib; first compound 2.53 µM) | relative viability (AZ505 + Dasatinib; first compound 8 µM)
1 | Calu-6 | 0.826 | 0.915 | 0.879 | 0.531 | 0.543 | 0.842 | 1.07 | 0.934 | 0.937 | 0.962 |  |  |  |  |  |  |  |  |  | 
2 | ChaGo-K-1 | 0.908 | 0.919 | 0.886 | 0.835 | 0.926 |  |  |  |  |  | 0.457 | 0.457 | 0.464 | 0.374 | 0.444 | 0.663 | 0.702 | 0.616 | 0.657 | 0.604
3 | EBC-1 | 0.102 | 0.0977 | 0.103 | 0.103 | 0.0903 | 0.815 | 0.806 | 0.893 | 0.857 | 0.66 |  |  |  |  |  |  |  |  |  | 
4 | EKVX | 0.598 | 0.743 | 0.652 | 0.715 | 0.568 | 0.896 | 1.04 | 0.896 | 0.899 | 1.01 | 0.26 | 0.222 | 0.229 | 0.225 | 0.215 | 0.556 | 0.543 | 0.539 | 0.494 | 0.504
5 | EMC-BAC-2 | 1.04 | 0.976 | 0.984 | 0.501 | 0.484 | 0.718 | 0.759 | 0.696 | 0.761 | 0.831 | 0.51 | 0.529 | 0.519 | 0.336 | 0.251 | 0.312 | 0.329 | 0.322 | 0.35 | 0.354
6 | EPLC-272H | 0.623 | 0.491 | 0.467 | 0.308 | 0.236 | 0.76 | 0.719 | 0.679 | 0.789 | 0.958 | 0.351 | 0.25 | 0.268 | 0.228 | 0.259 |  | 0.371 | 0.315 | 0.265 | 0.344
7 | H3255 | 0.989 | 0.851 | 0.793 | 0.724 | 0.772 | 0.62 | 0.8 | 0.715 | 0.705 | 0.813 | 0.386 | 0.354 | 0.388 | 0.328 | 0.348 | 0.368 | 0.316 | 0.369 | 0.388 | 0.483
8 | HARA | 1.12 | 0.878 | 0.771 | 0.763 | 0.225 | 0.704 | 0.641 | 0.582 | 0.512 | 0.494 | 0.467 | 0.441 | 0.51 | 0.405 | 0.211 | 0.191 | 0.229 | 0.367 | 0.318 | 0.217
9 | HCC-15 | 1.02 | 1.01 | 0.936 | 0.548 | 0.446 | 0.773 | 0.926 | 0.918 | 0.809 | 0.933 | 0.482 | 0.488 | 0.449 | 0.291 | 0.184 | 0.513 | 0.581 | 0.654 | 0.524 | 0.618
10 | HCC-44 |  |  |  |  |  | 0.734 | 0.751 | 0.75 | 0.901 | 0.869 | 0.274 | 0.203 | 0.171 |  | 0.166 |  |  |  |  | 
